Laboratory results from patent publication US7297705B2, “Azaindolylalkylamine derivatives as 5-hydroxytryptamine-6 ligands” (Wyeth, priority 2001, dated 2007).
Read-outs that look alike come from different tables or passages of the source.

Target: T1, human cloned 5-HT6 receptors (Homo sapiens, UniProt P50406)
T1 construct: expressed in transfected cells; host or cells: Hela cells
Assay: 5-HT6 binding affinity, [3H]-LSD displacement on membranes of Hela cells expressing human cloned 5-HT6 receptors
Protocol: Comparative Evaluation of 5-HT6 Binding Affinity of Test Compounds
The affinity of test compounds for the serotonin 5-HT6 receptor is evaluated in the following manner. Cultured Hela cells expressing human cloned 5-HT6 receptors are harvested and centrifuged at low speed (1,000×g) for 10.0 min to remove the culture media. The harvested cells are suspended in half volume of fresh physiological phosphate buffered saline solution and recentrifuged at the same speed. This operation is repeated. The collected cells are then homogenized in ten volumes of 50 mM Tris.HCl (pH 7.4) and 0.5 mM EDTA. The homogenate is centrifuged at 40,000×g for 30.0 min and the precipitate is collected. The obtained pellet is resuspended in 10 volumes of Tris.HCl buffer and recentrifuged at the same speed. The final pellet is suspended in a small volume of Tris.HCl buffer and the tissue protein content is determined in aliquots of 10-25 μl volumes. Bovine Serum Albumin is used as the standard in the protein determination according to the method described in Lowry et al., J. Biol. Chem., 193:265 (1951). The volume of the suspended cell membranes is adjusted to give a tissue protein concentration of 1.0 mg/ml of suspension. The prepared membrane suspension (10 times concentrated) is aliquoted in 1.0 ml volumes and stored at −70° C. until used in subsequent binding experiments.
The reaction is allowed to proceed in the dark for 120 min at room temperature, at which time, the bound ligand-receptor complex is filtered off on a 96 well unifilter with a Packard Filtermate® 196 Harvester. The bound complex caught on the filter disk is allowed to air dry and the radioactivity is measured in a Packard TopCount® equipped with six photomultiplier detectors, after the addition of 40.0 μl Microscint®-20 scintillant to each shallow well. The unifilter plate is heat-sealed and counted in a PackardTopCount® with a tritium efficiency of 31.0%.
Binding in the presence of varying concentrations of test compound is expressed as a percentage of specific binding in the absence of test compound. The results are plotted as log % bound versus log concentration of test compound. […] A linear regression line of data points is plotted, from which the IC50 value is determined and the Ki value is determined based upon the following equation: Ki=IC50/(1+L/KD) where L is the concentration of the radioactive ligand used and KD is the dissociation constant of the ligand for the receptor, both expressed in nM.

T1 sequence (P50406 whole entry): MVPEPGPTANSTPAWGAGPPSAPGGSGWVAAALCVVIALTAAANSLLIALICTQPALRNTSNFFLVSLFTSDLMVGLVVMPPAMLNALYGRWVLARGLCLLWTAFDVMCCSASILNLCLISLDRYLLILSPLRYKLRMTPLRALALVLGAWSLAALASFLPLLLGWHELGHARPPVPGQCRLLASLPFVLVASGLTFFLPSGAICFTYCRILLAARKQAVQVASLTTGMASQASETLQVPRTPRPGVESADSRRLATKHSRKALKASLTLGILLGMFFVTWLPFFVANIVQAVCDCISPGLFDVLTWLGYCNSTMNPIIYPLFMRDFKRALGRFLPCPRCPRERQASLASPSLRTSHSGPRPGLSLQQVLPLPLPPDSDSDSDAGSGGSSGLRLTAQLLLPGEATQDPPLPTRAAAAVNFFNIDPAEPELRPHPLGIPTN

Ki (read-out: 5-HT6 Binding Ki) | Structure (SMILES) | Ki | also measured
– | NCCc1cn(S(=O)(=O)c2ccccc2Cl)c2cccnc12 [Example 1, 2-[1-(2-Clorobenzensulfonyl)-1H-pyrrolo[3,2-b]pyridin-3-yl]ethylamine] | – | Ki ([3H]-LSD 3.0 nM, 120 min at room temperature, Ki=IC50/(1+L/KD), read-out: 5-HT6 Binding Ki): 5 nM
2 nM | NCCc1cn(S(=O)(=O)c2ccc(Cl)s2)c2cccnc12 [Example 5] | – | –
– | NCCc1cn(S(=O)(=O)c2c(Cl)nc3sccn23)c2cccnc12 [Example 11] | 0.8 nM | –
– | NCCc1cn(S(=O)(=O)c2cccc(C(F)(F)F)c2)c2cccnc12 [Example 13] | 5 nM | –
– | NCCc1cn(S(=O)(=O)c2ccc(C(F)(F)F)cc2Cl)c2cccnc12 [Example 14] | 15 nM | –
– | NCCc1cn(S(=O)(=O)c2ccc(F)c(F)c2)c2cccnc12 [Example 15] | 16 nM | –
1.6 nM | NCCc1cn(S(=O)(=O)c2cccc(Cl)c2)c2cccnc12 [Example 16] | – | –
– | COc1cccc(S(=O)(=O)n2cc(CCN)c3ncccc32)c1 [Example 17] | 2.9 nM | –
– | NCCc1cn(S(=O)(=O)c2cnc3sccn23)c2cccnc12 [Example 18] | 1.6 nM | –
4.5 nM | NCCc1cn(S(=O)(=O)c2ccccc2)c2cccnc12 [Example 19] | – | –
– | NCCc1cn(S(=O)(=O)c2cccc(F)c2)c2cccnc12 [Example 20] | 3.3 nM | –
– | Cc1cccc(S(=O)(=O)n2cc(CCN)c3ncccc32)c1 [Example 22] | 2.4 nM | –
– | NCCc1cn(S(=O)(=O)c2cccc(Cl)c2Cl)c2cccnc12 [Example 23] | 2.1 nM | –
– | NCCc1cn(S(=O)(=O)c2ccccc2F)c2cccnc12 [Example 24] | 5.3 nM | –
3.5 nM | NCCc1cn(S(=O)(=O)c2cccc(Br)c2)c2cccnc12 [Example 25] | – | –
– | NCCc1cn(S(=O)(=O)c2c(Cl)nc3sc(Cl)cn23)c2cccnc12 [Example 26] | 7.3 nM | –
– | NCCc1cn(S(=O)(=O)c2c(Cl)nc3sccn23)c2ccncc12 [Example 35, 2-{[1-(6-Chloroimidazo[2,1-b]thiazol-5-yl)sulfonyl]-1H-pyrrolo[3,2-c]pyridin-3-yl)ethylamine] | 15.7 nM | –
– | NCCc1cn(S(=O)(=O)c2cnc3sccn23)c2ccncc12 [Example 39] | 47 nM | –
170 nM | NCCc1cn(S(=O)(=O)c2cccc(F)c2)c2ccncc12 [Example 41] | – | –
– | NCCc1cn(S(=O)(=O)c2ccc(Cl)s2)c2ccncc12 [Example 43] | 47.5 nM | –
164 nM | NCCc1cn(S(=O)(=O)c2ccccc2)c2ccncc12 [Example 44] | – | –
– | NCCc1cn(S(=O)(=O)c2cccc(Cl)c2Cl)c2ccncc12 [Example 47] | 32.7 nM | –
– | COc1cccc(S(=O)(=O)n2cc(CCN)c3cccnc32)c1 [Example 68, 2-[1-(3-Methoxybenzenesulfonyl)-1H-pyrrolo[2,3-b]pyridin-3-yl]ethylamine] | 33.3 nM | –

Ki (read-out: 5-HT6 Binding Ki) | Structure (SMILES) | Ki | also measured
43 nM | NCCc1cn(S(=O)(=O)c2ccccc2)c2ncccc12 [Example 80] | – | –
– | NCCc1cn(S(=O)(=O)c2ccc3ccccc3c2)c2ncccc12 [Example 82] | 12 nM | –
– | NCCc1cn(S(=O)(=O)c2ccc(N)cc2)c2ncccc12 [Example 83] | 2.4 nM | –
– | COc1ccc(S(=O)(=O)n2cc(CCN)c3cccnc32)cc1 [Example 84] | 74.6 nM | –
– | N#Cc1ccccc1S(=O)(=O)n1cc(CCN)c2cccnc21 [Example 87] | 79 nM | –
– | NCCc1cn(S(=O)(=O)c2ccccc2C(F)(F)F)c2ncccc12 [Example 89] | 38.3 nM | –
– | NCCc1cn(S(=O)(=O)c2cccc(C(F)(F)F)c2)c2ncccc12 [Example 90] | 21 nM | –
– | CC(C)c1ccc(S(=O)(=O)n2cc(CCN)c3cccnc32)cc1 [Example 93] | 39.3 nM | –
– | CN(C)CCc1cn(S(=O)(=O)c2ccccc2)c2ncccc12 [Example 94] | 40 nM | –
19.6 nM | CN(C)CCc1cn(S(=O)(=O)c2ccc3ccccc3c2)c2ncccc12 [Example 96] | – | –
– | COc1cccc(S(=O)(=O)n2cc(CCN(C)C)c3cccnc32)c1 [Example 97] | 24.6 nM | –
– | COc1ccc(S(=O)(=O)n2cc(CCN(C)C)c3cccnc32)cc1OC [Example 99] | 76.6 nM | –
– | CN(C)CCc1cn(S(=O)(=O)c2ccccc2C(F)(F)F)c2ncccc12 [Example 103] | 38 nM | –
– | CN(C)CCc1cn(S(=O)(=O)c2cccc(C(F)(F)F)c2)c2ncccc12 [Example 104] | 29.3 nM | –
– | Cc1ccc(C)c(S(=O)(=O)n2cc(CCN)c3cccnc32)c1 [Example 108] | 23.7 nM | –
– | NCCc1cn(S(=O)(=O)c2ccc(F)c(Cl)c2)c2ncccc12 [Example 109] | 61.3 nM | –
– | NCCc1cn(S(=O)(=O)c2ccc(F)cc2Cl)c2ncccc12 [Example 110] | 38.3 nM | –
– | Cc1ccc(S(=O)(=O)n2cc(CCN)c3cccnc32)cc1Cl [Example 111] | 3.6 nM | –
– | Cc1ccc(F)cc1S(=O)(=O)n1cc(CCN)c2cccnc21 [Example 112] | 38.7 nM | –
– | Cc1cc(S(=O)(=O)n2cc(CCN)c3cccnc32)c(C)cc1Cl [Example 114] | 17.7 nM | –
39.3 nM | NCCc1cn(S(=O)(=O)c2ccccc2F)c2ncccc12 [Example 115] | – | –
– | NCCc1cn(S(=O)(=O)c2cccc(F)c2)c2ncccc12 [Example 116] | 13.4 nM | –
– | NCCc1cn(S(=O)(=O)c2ccc(F)c(F)c2)c2ncccc12 [Example 118] | 89.3 nM | –

Ki (read-out: 5-HT6 Binding Ki) | Structure (SMILES) | Ki | also measured
– | NCCc1cn(S(=O)(=O)c2ccccc2Cl)c2ncccc12 [Example 120] | 27 nM | –
– | NCCc1cn(S(=O)(=O)c2cccc(Cl)c2)c2ncccc12 [Example 121] | 6 nM | –
– | NCCc1cn(S(=O)(=O)c2ccc(Cl)cc2)c2ncccc12 [Example 122] | 50 nM | –
– | NCCc1cn(S(=O)(=O)c2ccc(Cl)s2)c2ncccc12 [Example 129] | 11.7 nM | –
– | NCCc1cn(S(=O)(=O)c2ccc(Br)s2)c2ncccc12 [Example 130] | 8.5 nM | –
– | NCCc1cn(S(=O)(=O)c2cc(Cl)c(Cl)s2)c2ncccc12 [Example 131] | 19.7 nM | –
52 nM | NCCc1cn(S(=O)(=O)c2cc(Cl)sc2Cl)c2ncccc12 [Example 132] | – | –
– | NCCc1cn(S(=O)(=O)c2cc(Br)c(Br)s2)c2ncccc12 [Example 133] | 10.7 nM | –
– | NCCc1cn(S(=O)(=O)c2sc(Cl)cc2Br)c2ncccc12 [Example 134] | 29 nM | –
16.3 nM | NCCc1cn(S(=O)(=O)c2cc(Br)c(Cl)s2)c2ncccc12 [Example 135] | – | –
40 nM | NCCc1cn(S(=O)(=O)c2c(Cl)sc(Cl)c2Br)c2ncccc12 [Example 136] | – | –
25 nM | NCCc1cn(S(=O)(=O)c2c(Cl)nc3ccccn23)c2ncccc12 [Example 137] | – | –
42.3 nM | NCCc1cn(S(=O)(=O)c2cccc3nonc23)c2ncccc12 [Example 141] | – | –
69.7 nM | NCCc1cn(S(=O)(=O)c2cccc3nsnc23)c2ncccc12 [Example 142] | – | –
– | CN(C)CCc1cn(S(=O)(=O)c2ccc(F)cc2Cl)c2ncccc12 [Example 144] | 56.3 nM | –
– | Cc1cc(S(=O)(=O)n2cc(CCN(C)C)c3cccnc32)c(C)cc1Cl [Example 146] | 31.7 nM | –
– | CN(C)CCc1cn(S(=O)(=O)c2ccccc2F)c2ncccc12 [Example 147] | 47.3 nM | –
– | CN(C)CCc1cn(S(=O)(=O)c2cccc(F)c2)c2ncccc12 [Example 148] | 28 nM | –
– | CN(C)CCc1cn(S(=O)(=O)c2ccc(Cl)s2)c2ncccc12 [Example 151] | 13 nM | –
– | CN(C)CCc1cn(S(=O)(=O)c2cc(Cl)sc2Cl)c2ncccc12 [Example 152] | 53.7 nM | –
– | CN(C)CCc1cn(S(=O)(=O)c2c(Cl)nc3ccccn23)c2ncccc12 [Example 153] | 57.3 nM | –
– | NCCc1cn(S(=O)(=O)c2c(Cl)nc3sccn23)c2ncccc12 [Example 154] | 7.4 nM | –
90.7 nM | NCCc1cn(S(=O)(=O)c2c(Cl)nc3sc(Cl)cn23)c2ncccc12 [Example 158] | – | –

Structure (SMILES) | Ki (read-out: 5-HT6 Binding Ki) | Ki | also measured
NCCc1cn(S(=O)(=O)c2cccc(Cl)c2)c2ccncc12 [Example 40] | 110 nM | – | –
COc1cccc(S(=O)(=O)n2cc(CCN)c3cnccc32)c1 [Example 42] | 198 nM | – | –
Cc1cccc(S(=O)(=O)n2cc(CCN)c3cnccc32)c1 [Example 45] | 152 nM | – | –
NCCc1cn(S(=O)(=O)c2cccc(C(F)(F)F)c2)c2ccncc12 [Example 46] | 173 nM | – | –
NCCc1cn(S(=O)(=O)c2ccc(F)cc2F)c2ncccc12 [Example 71] | 113 nM | – | –
COc1ccc(S(=O)(=O)n2cc(CCN)c3cccnc32)cc1OC [Example 85] | 106 nM | – | –
CC(C)(C)c1ccc(S(=O)(=O)n2cc(CCN)c3cccnc32)cc1 [Example 91] | 114 nM | – | –
COc1ccc(Cl)cc1S(=O)(=O)n1cc(CCN)c2cccnc21 [Example 113] | 186 nM | – | –
